According to ChEMBL document CHEMBL5465560, “Selectivity Literature for EUbOPEN Chemogenomic Library” (2024):
Values belong to the molecule of their own block, whether it stands above or below them.

Key:
[1] = target: Sphingosine kinase 1 (Homo sapiens) (UniProt Q9NYA1); details: at 1 µM
[2] = target: Mitotic checkpoint serine/threonine-protein kinase BUB1 beta (Homo sapiens) (UniProt O60566); test: Selectivity interaction (ProQinase) EUB0000171b BUB1B
[3] = target: T1, Mitogen-activated protein kinase kinase kinase 6 (Homo sapiens) (UniProt O95382); test: Selectivity interaction (KinomeScan (DiscoverX)) EUB0001079a MAP3K6; details: at 1 µM
T1 sequence (whole entry): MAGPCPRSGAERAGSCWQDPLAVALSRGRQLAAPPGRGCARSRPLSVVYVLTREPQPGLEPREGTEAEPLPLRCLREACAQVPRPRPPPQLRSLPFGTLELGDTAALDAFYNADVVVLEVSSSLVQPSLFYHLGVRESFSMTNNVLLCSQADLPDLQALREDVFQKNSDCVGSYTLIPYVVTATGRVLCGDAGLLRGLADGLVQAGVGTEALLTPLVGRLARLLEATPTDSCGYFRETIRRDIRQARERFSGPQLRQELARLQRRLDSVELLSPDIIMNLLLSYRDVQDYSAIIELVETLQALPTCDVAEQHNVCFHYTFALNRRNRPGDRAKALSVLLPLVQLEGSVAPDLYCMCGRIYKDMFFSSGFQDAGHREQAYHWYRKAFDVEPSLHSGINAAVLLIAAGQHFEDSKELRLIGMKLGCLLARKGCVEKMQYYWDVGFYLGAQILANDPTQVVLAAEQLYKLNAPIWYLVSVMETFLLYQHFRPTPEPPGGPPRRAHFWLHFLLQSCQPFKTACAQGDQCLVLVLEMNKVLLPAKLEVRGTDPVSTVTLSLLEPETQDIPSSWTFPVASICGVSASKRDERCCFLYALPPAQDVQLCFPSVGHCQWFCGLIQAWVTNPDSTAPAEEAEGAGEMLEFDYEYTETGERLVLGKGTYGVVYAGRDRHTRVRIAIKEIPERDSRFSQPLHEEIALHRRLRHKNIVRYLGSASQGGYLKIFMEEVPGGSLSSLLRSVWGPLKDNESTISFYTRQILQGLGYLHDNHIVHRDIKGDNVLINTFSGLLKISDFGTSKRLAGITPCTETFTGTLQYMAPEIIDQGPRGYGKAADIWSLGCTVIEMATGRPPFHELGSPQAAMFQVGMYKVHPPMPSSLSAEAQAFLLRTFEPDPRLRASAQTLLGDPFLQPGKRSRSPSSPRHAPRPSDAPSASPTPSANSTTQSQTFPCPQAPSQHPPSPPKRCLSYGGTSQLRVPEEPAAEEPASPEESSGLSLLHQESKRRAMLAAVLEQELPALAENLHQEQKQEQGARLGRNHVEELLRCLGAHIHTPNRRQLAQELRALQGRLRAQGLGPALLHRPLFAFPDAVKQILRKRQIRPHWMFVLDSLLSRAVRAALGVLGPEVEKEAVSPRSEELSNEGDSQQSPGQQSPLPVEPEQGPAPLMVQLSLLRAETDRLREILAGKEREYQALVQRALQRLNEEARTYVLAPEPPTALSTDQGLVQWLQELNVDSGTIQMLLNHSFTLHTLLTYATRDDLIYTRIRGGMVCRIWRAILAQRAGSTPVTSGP

[4] = target: Calcium/calmodulin-dependent protein kinase type II subunit alpha (Homo sapiens, UniProt Q9UQM7); test: Selectivity interaction (Kinase panel (KiNativ target engagement assay in Jurkat cells)) EUB0001635a CAMK2A; format: cell-based; details: Selectivity number of off-targets 0.0, Selectivity number of targets 233.0, Source Knowledge https://www.sciencedirect.com/science/article/pii/S2451945619300674?via%3Dihub, at 1 µM
Calcium/calmodulin-dependent protein kinase type II subunit alpha, sequence (Q9UQM7 whole entry): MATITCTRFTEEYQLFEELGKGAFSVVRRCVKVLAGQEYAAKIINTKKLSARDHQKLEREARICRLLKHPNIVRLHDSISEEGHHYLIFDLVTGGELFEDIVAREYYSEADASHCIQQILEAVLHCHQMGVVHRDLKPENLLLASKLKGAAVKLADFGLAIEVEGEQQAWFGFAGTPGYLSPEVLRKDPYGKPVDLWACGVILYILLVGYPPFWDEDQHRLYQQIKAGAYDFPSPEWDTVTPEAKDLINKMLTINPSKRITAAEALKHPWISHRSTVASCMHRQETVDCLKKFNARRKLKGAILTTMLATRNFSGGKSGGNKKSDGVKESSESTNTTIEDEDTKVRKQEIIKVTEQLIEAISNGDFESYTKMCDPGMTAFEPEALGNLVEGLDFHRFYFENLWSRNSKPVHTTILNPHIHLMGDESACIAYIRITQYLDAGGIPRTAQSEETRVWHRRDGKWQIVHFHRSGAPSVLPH

[5] = target: Serine/threonine-protein kinase 26 (Homo sapiens, UniProt Q9P289); test: Selectivity interaction (KinomeScan (DiscoverX)) EUB0000229b STK26; details: at 10 µM
Serine/threonine-protein kinase 26, sequence (Q9P289 2-416 limits assumed): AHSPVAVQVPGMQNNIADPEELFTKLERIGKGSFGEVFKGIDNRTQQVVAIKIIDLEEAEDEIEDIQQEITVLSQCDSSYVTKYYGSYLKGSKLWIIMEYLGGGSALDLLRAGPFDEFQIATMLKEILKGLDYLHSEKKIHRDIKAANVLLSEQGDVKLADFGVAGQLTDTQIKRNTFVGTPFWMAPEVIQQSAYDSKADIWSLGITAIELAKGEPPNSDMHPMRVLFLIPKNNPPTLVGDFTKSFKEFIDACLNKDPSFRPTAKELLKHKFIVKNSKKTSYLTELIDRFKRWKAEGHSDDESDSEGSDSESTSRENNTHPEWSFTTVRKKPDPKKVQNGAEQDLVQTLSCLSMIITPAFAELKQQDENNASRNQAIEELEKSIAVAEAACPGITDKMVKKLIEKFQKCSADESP

[6] = target: T2, Serine/threonine-protein kinase 3 (Homo sapiens) (UniProt Q13188); test: Selectivity interaction (ActivX KiNativ screen (ex vivo kinase selectivity in human PBMCs)) EUB0001619a STK3; format: cell-based; details: PBMC, at 1 µM
T2 sequence (whole entry): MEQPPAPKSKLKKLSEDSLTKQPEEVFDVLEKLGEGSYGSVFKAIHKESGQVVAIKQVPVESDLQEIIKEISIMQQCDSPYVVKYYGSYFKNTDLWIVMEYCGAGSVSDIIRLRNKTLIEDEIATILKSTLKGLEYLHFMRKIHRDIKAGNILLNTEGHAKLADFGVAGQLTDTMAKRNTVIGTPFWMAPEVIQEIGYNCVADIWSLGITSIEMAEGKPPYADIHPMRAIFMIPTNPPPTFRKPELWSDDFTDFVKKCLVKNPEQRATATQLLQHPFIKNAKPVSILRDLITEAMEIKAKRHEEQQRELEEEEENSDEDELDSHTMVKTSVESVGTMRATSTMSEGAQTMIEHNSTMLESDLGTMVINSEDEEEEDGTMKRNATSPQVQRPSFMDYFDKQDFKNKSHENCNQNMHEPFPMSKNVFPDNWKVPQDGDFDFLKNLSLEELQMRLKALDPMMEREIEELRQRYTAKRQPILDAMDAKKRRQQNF

Mitotic checkpoint serine/threonine-protein kinase BUB1 beta (Homo sapiens), sequence (O60566 whole entry): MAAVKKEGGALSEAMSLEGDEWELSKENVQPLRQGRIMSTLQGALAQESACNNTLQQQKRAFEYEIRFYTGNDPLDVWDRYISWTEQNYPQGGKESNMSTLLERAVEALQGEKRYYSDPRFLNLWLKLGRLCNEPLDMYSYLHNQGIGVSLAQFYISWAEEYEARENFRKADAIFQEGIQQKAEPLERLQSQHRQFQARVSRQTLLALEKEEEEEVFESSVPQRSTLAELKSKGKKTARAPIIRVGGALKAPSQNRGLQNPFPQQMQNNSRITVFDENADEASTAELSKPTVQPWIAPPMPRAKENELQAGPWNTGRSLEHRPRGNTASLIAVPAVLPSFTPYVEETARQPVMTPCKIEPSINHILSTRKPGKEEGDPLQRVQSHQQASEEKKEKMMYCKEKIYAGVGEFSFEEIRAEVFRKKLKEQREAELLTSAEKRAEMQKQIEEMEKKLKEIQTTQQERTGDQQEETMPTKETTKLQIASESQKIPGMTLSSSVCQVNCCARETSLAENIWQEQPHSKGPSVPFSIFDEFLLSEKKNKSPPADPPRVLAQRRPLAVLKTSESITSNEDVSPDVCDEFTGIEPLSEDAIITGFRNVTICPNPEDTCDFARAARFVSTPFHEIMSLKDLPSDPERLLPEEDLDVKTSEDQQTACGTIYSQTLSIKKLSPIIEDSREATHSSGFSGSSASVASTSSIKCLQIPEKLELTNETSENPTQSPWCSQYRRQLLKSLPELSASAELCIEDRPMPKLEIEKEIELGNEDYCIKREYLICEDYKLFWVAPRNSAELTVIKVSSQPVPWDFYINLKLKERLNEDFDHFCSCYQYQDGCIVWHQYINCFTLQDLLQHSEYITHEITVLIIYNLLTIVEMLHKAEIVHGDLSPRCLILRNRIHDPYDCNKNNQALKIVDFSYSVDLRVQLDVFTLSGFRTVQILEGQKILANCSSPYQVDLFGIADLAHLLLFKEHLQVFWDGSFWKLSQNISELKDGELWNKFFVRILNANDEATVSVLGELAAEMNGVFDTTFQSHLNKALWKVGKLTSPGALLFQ
Sphingosine kinase 1 (Homo sapiens), sequence (Q9NYA1 whole entry): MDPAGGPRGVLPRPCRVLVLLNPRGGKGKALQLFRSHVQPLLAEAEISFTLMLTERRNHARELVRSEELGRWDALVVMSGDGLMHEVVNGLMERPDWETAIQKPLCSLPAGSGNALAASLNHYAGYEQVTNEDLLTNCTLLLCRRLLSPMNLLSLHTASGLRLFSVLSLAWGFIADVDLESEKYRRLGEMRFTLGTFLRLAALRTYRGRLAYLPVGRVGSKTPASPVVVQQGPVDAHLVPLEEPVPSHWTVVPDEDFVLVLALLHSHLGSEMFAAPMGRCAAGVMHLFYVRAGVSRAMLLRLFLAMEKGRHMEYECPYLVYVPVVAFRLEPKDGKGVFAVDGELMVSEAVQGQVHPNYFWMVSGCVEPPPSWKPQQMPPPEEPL

% of inhibition [1]: -3%
Structure (SMILES): CN1Cc2nccc(-c3cn(C)nc3-c3ccc(F)cc3)c2C1=O

% of control ([2]; at 1 µM): 95% | % of control ([2]; at 5 µM): 80%
Structure (SMILES): C=CC(=O)Nc1cccc(C(=O)Nc2ccc(Nc3cc(-c4[nH]c(SC)nc4C)ccn3)cc2)c1

Structure (SMILES): Nc1cnc(N2CCc3cc(S(=O)(=O)Nc4c(F)cc(Cl)cc4F)cc(N4CCCC4=O)c32)nc1 [TP-020n]
% of control [3]: 75%

Structure (SMILES): C=CC(=O)Nc1ccc(C(=O)Nc2[nH]nc3c2CN(C(=O)N[C@H](CN(C)C)c2ccccc2)C3(C)C)cc1
% of engagement [4]: 24.5%

Structure (SMILES): COc1cc(N(C)c2ccnc3ccc(C(F)(F)F)cc23)cc(OC)c1OC
% binding [5]: 99%

Structure (SMILES): N#Cc1cccc(-c2c[nH]c3ncnc(N4CCOCC4)c23)c1
% of inhibition [6]: 83%
